Entries after “also recorded” stand apart in the source; their conditions may differ. One block for each substance: values may come before it. Where no end group is shown, it is not given here.
Columns and labels:
[1] = tested on: blood pressure of awake Sprague-Dawley IGS male rats; assay: Hypotensive activity on awake rats; type: in vivo, rat; set-up: key to Hypotensive activity (dose/rat) 10 nmol / Hypotensive activity (dose/rat) 30 nmol: Extremely strong activity (+++): A decrease in systolic blood pressure is 30 mmHg or more, and the time required for recovery is 5 minutes or more.; Strong activity (++): A decrease in systolic blood pressure is 20 mmHg or more and less than 30 mmHg, or the time required for recovery is less than 5 minutes.; Activity observed (+): A decrease in systolic blood pressure is less than 20 mmHg.; Activity not observed (−); conditions: for Hypotensive activity (dose/rat) 10 nmol / Hypotensive activity (dose/rat) 30 nmol / Hypotensive activity (dose/rat) 100 nmol: Table 4, intravenous; for Hypotensive activity (dose/rat) 10 nmol: 10 nmol/rat; for Hypotensive activity (dose/rat) 30 nmol: 30 nmol/rat; for Hypotensive activity (dose/rat) 100 nmol: 100 nmol/rat
Method: 50 mg/kg pentobarbital sodium was intraperitoneally administered to 8- to 10-week-old Sprague-Dawley IGS male rats (Charles River Laboratories Japan, Inc.) for anesthesia. Thereafter, a jugular vein cannula (Silascon 0.5-1.0) was inserted into each rat for use in peptide administration, and a carotid artery cannula (PE50) was inserted into each rat for use in the measurement of blood pressure. At least 3 hours after the surgery, it was confirmed that the rats were awoken from the anesthesia based on general conditions such as the posture, respiration, and the like of the rats. Thereafter, the rats were subjected to the experiment.
The carotid artery cannula was connected with a pressure transducer (PE23XL; manufactured by Nihon Kohden Corporation), and an apparatus formed by incorporating a blood pressure measurement unit (AP-641G; manufactured by Nihon Kohden Corporation) and an instantaneous heart rate measurement unit (AT-601G; manufactured by Nihon Kohden Corporation) into a multi-purpose preamplifier (RP-6004; manufactured by Nihon Kohden Corporation) was used to record the blood pressure and heart rate of each rat. The blood pressure was calibrated using a mercury manometer included in a stand-type electromanometer (MP-25S; manufactured by Nihon Kohden Corporation). The recording paper was adjusted, such that 20 mm or 40 mm on the recording paper corresponded to 100 mmHg. A solvent in which each peptide had been dissolved was used as a negative control in blood pressure fluctuation.
Each peptide was dissolved in a concentration of 1 mM in a 5% mannitol solution to prepare a peptide solution. Thereafter, depending on dose, it was diluted with a 5% mannitol solution. In the case of the dose of 10 nmol/rat, a 1 mM peptide solution was 30 times diluted, and 300 μL of the diluted solution was administered. In the case of the dose of 30 nmol/rat, a 1 mM peptide solution was 10 times diluted, and 300 μl of the diluted solution was administered. In the case of the dose of 100 nmol/rat, a 1 mM peptide solution was 3 times diluted, and 300 μL of the diluted solution was administered. Each peptide was intravenously administered via the jugular vein cannula, and the systolic blood pressure, diastolic blood pressure, and heart rate were then measured.
The definition of the strength of hypotensive activity was the same as that of Example 3.

[2] = tested on: blood pressure of anesthetized Sprague-Dawley IGS male rats; assay: Hypotensive activity in anesthetized rats, invasive blood pressure measurement after intravenous administration; type: in vivo, rat; conditions: for Hypotensive activity (dose/rat) 10 nmol / Hypotensive activity (dose/rat) 30 nmol / Hypotensive activity (dose/rat) 100 nmol: intravenous; for Hypotensive activity (dose/rat) 10 nmol: 10 nmol/rat; for Hypotensive activity (dose/rat) 30 nmol: 30 nmol/rat; for Hypotensive activity (dose/rat) 100 nmol: 100 nmol/rat
Method: 50 mg/kg pentobarbital sodium was intraperitoneally administered to 8- to 10-week-old Sprague-Dawley IGS male rats (Charles River Laboratories Japan, Inc.) for anesthesia. Thereafter, a tracheal cannula (PE 250), a femoral vein cannula (PE50), and a femoral artery cannula (PESO) were inserted into each rat. The femoral artery cannula was connected with a pressure transducer (PE23XL; manufactured by Nihon Kohden Corporation), and an apparatus formed by incorporating a blood pressure measurement unit (AP-641G; manufactured by Nihon Kohden Corporation) and an instantaneous heart rate measurement unit (AT-601G; manufactured by Nihon Kohden Corporation) into a multi-purpose preamplifier (RP-6004; manufactured by Nihon Kohden Corporation) was used to record the blood pressure and heart rate of each rat. The blood pressure was calibrated using a mercury manometer included in a stand-type electromanometer (MP-25S; manufactured by Nihon Kohden Corporation). The recording paper was adjusted, such that 10 mm or 20 mm on the recording paper corresponded to 100 mmHg.
Each peptide was dissolved in a concentration of 1 mM or 10 mM in a 0.1% acetic acid solution to prepare a peptide solution. Thereafter, depending on dose, it was diluted with a normal saline containing 0.1% bovine serum albumin (Fr.V). In the case of the dose of 10 nmol/rat, a 1 mM peptide solution was 10 times diluted, and 100 μl of the diluted solution was administered. In the case of the dose of 30 nmol/rat, a 1 mM peptide solution was 10 times diluted, and 300 μL, of the diluted solution was administered. In the case of the dose of 100 nmol/rat, a 10 mM peptide solution was 10 times diluted, and 100 μL of the diluted solution was administered. Each peptide was intravenously administered via the femoral vein cannula, and the systolic blood pressure, diastolic blood pressure, and heart rate were then measured.
Various HC021 derivative peptides were synthesized in accordance with Example 1, and such peptide was then administered to each rat at a dose of 10 nmol/rat, 30 nmol/rat, or 100 mol/rat by the method described in Example 2. Thereafter, the hypotensive activity of each derivative peptide was measured. […] The strength of such activity was determined using a median of activity in repeated experiments. In addition, in order to make a comparison among the activities of various derivative peptides, the strength of hypotensive activity was defined as follows.
Strength of Hypotensive Activity
Extremely strong activity (+++): A decrease in systolic blood pressure is 30 mmHg or more, and the time required for recovery is 5 minutes or more.
Strong activity (++): A decrease in systolic blood pressure is 20 mmHg or more and less than 30 mmHg, or the time required for recovery is less than 5 minutes.
Activity observed (+): A decrease in systolic blood pressure is less than 20 mmHg.
Activity not observed (−)
Various HC021 peptide sequence-substituted products were synthesized in accordance with Example 1, and their hypotensive activity was then measured according to the method of Example 3.

[3] = tested on: anti-[N-Cys]-HC021-004 serum; assay: ELISA binding of anti-[N-Cys]-HC021-004 serum to coated peptides; set-up: species or system rabbit; conditions: absorbance at 405 nm, FIG. 3
From the text: Using [N-Cys]-HC021-004 (a peptide prepared by binding cysteine to the amino terminus of HC021-004) as an antigen, a rabbit was immunized with the antigen to produce antiserum (anti-[N-Cys]-HC021-004 serum).
The ability of this antiserum to bind to peptides having various types of sequences was examined using Protein Detector™ ELISA kit (AP; BluePhos System; manufactured by KPL). Reactions were all carried out at a room temperature. A 96-well immunoplate (maxi-coated; manufactured by Nunc) was coated (amount: 100 uL/well) with each peptide having a different type of sequence (concentration: 1 ng/100 uL) for 1 hour. Then, it was blocked with a 300 uL/well blocking solution for 1 hour. Thereafter, the serially diluted antiserum was added in an amount of 100 uL/well to the immunoplate, followed by reaction for 1 hour. After completion of washing, 500-times diluted Anti-rabbit IgG HRP Ab (manufactured by KPL) was added thereto in an amount of 100 uL/well, followed by reaction for 1 hour. After completion of washing, ABTS (manufactured by KPL) used as a substrate was added thereto in an amount of 100 uL/well. Thirty minutes later, the absorbance at 405 nm was measured.

Substance: ATLRNEDTWKPLSNPRNRELFFRSLQAYFK-amide [Compound 36]
hypotensive activity (in words) [1]: observed to have a hypotensive activity even on the awake rats | Hypotensive activity (dose/rat) 10 nmol [1]: − | Hypotensive activity (dose/rat) 30 nmol [1]: − | Hypotensive activity (dose/rat) 100 nmol [1]: ++ (Strong activity (++): A decrease in systolic blood pressure is 20 mmHg or more and less than 30 mmHg, or the time required for recovery is less than 5 minutes.) | Hypotensive activity (dose/rat) 10 nmol ([2]; Table 3, anesthetized rats): − | Hypotensive activity (dose/rat) 30 nmol ([2]; Table 3, anesthetized rats): − | Hypotensive activity (dose/rat) 100 nmol ([2]; Table 3, anesthetized rats): +++ (Extremely strong activity (+++): A decrease in systolic blood pressure is 30 mmHg or more, and the time required for recovery is 5 minutes or more.)

binding of anti-[N-Cys]-HC021-004 serum to the peptide [3]: bound
Substance: LQAYFK-amide (LQAYFK-NH2) [Compound 4]
Hypotensive activity (dose/rat) 30 nmol ([2]; Table 1, anesthetized rats): − | Hypotensive activity (dose/rat) 100 nmol ([2]; Table 1, anesthetized rats): − | Hypotensive activity (dose/rat) 30 nmol ([2]; Table 2, anesthetized rats): − | Hypotensive activity (dose/rat) 100 nmol ([2]; Table 2, anesthetized rats): −

binding of anti-[N-Cys]-HC021-004 serum to the peptide [3]: did not bind
Substance: LQAYFKGRGLDLGTFPNPFPTNENP [Compound 2]
Hypotensive activity (dose/rat) 10 nmol ([2]; Table 1, anesthetized rats): − | Hypotensive activity (dose/rat) 30 nmol ([2]; Table 1, anesthetized rats): − | Hypotensive activity (dose/rat) 100 nmol ([2]; Table 1, anesthetized rats): −

binding of anti-[N-Cys]-HC021-004 serum to the peptide [3]: bound
Substance: NRDLFFRRLQAYFK-amide (NRDLFFRRLQAYFK-NH2) [Compound 3]
hypotensive activity (in words) [1]: observed to have a hypotensive activity even on the awake rats | Hypotensive activity (dose/rat) 10 nmol [1]: − | Hypotensive activity (dose/rat) 30 nmol [1]: − | Hypotensive activity (dose/rat) 100 nmol [1]: ++ (Strong activity (++): A decrease in systolic blood pressure is 20 mmHg or more and less than 30 mmHg, or the time required for recovery is less than 5 minutes.) | Hypotensive activity (dose/rat) 10 nmol ([2]; Table 1, anesthetized rats): + (Activity observed (+): A decrease in systolic blood pressure is less than 20 mmHg.) | Hypotensive activity (dose/rat) 30 nmol ([2]; Table 1, anesthetized rats): ++ (Strong activity (++): A decrease in systolic blood pressure is 20 mmHg or more and less than 30 mmHg, or the time required for recovery is less than 5 minutes.) | Hypotensive activity (dose/rat) 100 nmol ([2]; Table 1, anesthetized rats): +++ (Extremely strong activity (+++): A decrease in systolic blood pressure is 30 mmHg or more, and the time required for recovery is 5 minutes or more.) | Hypotensive activity (dose/rat) 10 nmol ([2]; Table 2, anesthetized rats): + (Activity observed (+): A decrease in systolic blood pressure is less than 20 mmHg.) | Hypotensive activity (dose/rat) 30 nmol ([2]; Table 2, anesthetized rats): ++ (Strong activity (++): A decrease in systolic blood pressure is 20 mmHg or more and less than 30 mmHg, or the time required for recovery is less than 5 minutes.) | Hypotensive activity (dose/rat) 100 nmol ([2]; Table 2, anesthetized rats): +++ (Extremely strong activity (+++): A decrease in systolic blood pressure is 30 mmHg or more, and the time required for recovery is 5 minutes or more.) | Hypotensive activity (dose/rat) 10 nmol ([2]; Table 3, anesthetized rats): + (Activity observed (+): A decrease in systolic blood pressure is less than 20 mmHg.) | Hypotensive activity (dose/rat) 30 nmol ([2]; Table 3, anesthetized rats): ++ (Strong activity (++): A decrease in systolic blood pressure is 20 mmHg or more and less than 30 mmHg, or the time required for recovery is less than 5 minutes.) | Hypotensive activity (dose/rat) 100 nmol ([2]; Table 3, anesthetized rats): +++ (Extremely strong activity (+++): A decrease in systolic blood pressure is 30 mmHg or more, and the time required for recovery is 5 minutes or more.) | dose dependence of hypotensive activity ([2]; anesthetized rats, 10, 30, 100 nmol/rat): enhanced their hypotensive activity in a dose-dependent manner | hypotensive activity (in words) ([2]; anesthetized rats, Table 1 and FIG. 1, 10 or 30 nmol/rat, listed as HC021-004): observed to have a hypotensive activity; also recorded: act to lower the blood pressure of rats

Reference: US20110039783A1, “PEPTIDE HAVING HYPOTENSIVE ACTIVITY” (DAIICHI SANKYO COMPANY LIMITED, priority 2007, published 2011)
